Assay results taken from ChEMBL document CHEMBL1146848, “The development of novel 1,2-dihydro-pyrimido[4,5-c]pyridazine based inhibitors of lymphocyte specific kinase (Lck)” (Bioorg Med Chem Lett, 2006).
Converted amounts (≈) assume the structure as drawn.

How the values were obtained:
[1] = target: Tyrosine-protein kinase Lck (Homo sapiens, UniProt P06239); assay: Inhibition of human recombinant Lck in presence of 10 mM ATP
[2] = Aqueous solubility of the compound; type: physicochemical; settings: buffer
[3] = target: Tyrosine-protein kinase HCK (Homo sapiens, UniProt P08631); assay: Inhibition of human recombinant Hck in presence of 10 mM ATP
Tyrosine-protein kinase HCK, sequence (P08631 whole entry): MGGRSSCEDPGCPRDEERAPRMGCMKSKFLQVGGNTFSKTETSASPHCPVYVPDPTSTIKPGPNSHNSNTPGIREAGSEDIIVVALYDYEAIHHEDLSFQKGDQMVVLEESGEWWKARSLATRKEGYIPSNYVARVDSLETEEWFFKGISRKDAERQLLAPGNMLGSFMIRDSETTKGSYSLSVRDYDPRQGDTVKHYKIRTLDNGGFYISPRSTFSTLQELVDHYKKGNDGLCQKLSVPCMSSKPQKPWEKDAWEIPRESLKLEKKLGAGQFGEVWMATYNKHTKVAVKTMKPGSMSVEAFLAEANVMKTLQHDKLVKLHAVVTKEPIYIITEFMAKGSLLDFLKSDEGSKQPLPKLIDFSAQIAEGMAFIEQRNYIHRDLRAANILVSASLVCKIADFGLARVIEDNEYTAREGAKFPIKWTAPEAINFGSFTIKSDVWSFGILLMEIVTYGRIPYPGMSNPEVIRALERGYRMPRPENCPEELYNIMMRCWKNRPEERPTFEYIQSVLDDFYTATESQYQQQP

[4] = target: Proto-oncogene tyrosine-protein kinase Src (Homo sapiens, UniProt P12931); assay: Inhibition of human recombinant Src in presence of 10 mM ATP
Proto-oncogene tyrosine-protein kinase Src, sequence (P12931 2-536 limits assumed): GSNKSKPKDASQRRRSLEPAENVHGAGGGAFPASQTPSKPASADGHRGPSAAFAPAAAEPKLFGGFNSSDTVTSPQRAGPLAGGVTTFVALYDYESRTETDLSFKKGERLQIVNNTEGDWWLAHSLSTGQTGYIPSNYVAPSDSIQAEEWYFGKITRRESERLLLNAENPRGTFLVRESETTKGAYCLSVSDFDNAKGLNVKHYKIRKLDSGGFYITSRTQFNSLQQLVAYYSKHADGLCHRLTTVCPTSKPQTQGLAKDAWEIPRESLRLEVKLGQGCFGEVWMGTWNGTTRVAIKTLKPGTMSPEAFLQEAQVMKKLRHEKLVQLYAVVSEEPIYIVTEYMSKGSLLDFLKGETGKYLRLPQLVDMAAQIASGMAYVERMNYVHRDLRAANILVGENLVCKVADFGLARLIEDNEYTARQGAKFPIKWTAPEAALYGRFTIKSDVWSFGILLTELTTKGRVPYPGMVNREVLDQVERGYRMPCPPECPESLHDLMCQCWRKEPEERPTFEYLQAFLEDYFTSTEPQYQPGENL

Jurkat = assay: Inhibition of anti-human CD3 epsilon-stimulated IL2 production in Jurkat E6-1 T cells; type: functional, cell-based
[5] = Half life in rat; type: ADME, organism-based; settings: in vivo
[6] = Bioavailability in rat; type: ADME, organism-based; settings: in vivo
[7] = Metabolic stability in Sprague-Dawley rat liver microsome after 1 hr; type: ADME; settings: liver microsomes, read-out: Stability

Tyrosine-protein kinase Lck, sequence (P06239 whole entry): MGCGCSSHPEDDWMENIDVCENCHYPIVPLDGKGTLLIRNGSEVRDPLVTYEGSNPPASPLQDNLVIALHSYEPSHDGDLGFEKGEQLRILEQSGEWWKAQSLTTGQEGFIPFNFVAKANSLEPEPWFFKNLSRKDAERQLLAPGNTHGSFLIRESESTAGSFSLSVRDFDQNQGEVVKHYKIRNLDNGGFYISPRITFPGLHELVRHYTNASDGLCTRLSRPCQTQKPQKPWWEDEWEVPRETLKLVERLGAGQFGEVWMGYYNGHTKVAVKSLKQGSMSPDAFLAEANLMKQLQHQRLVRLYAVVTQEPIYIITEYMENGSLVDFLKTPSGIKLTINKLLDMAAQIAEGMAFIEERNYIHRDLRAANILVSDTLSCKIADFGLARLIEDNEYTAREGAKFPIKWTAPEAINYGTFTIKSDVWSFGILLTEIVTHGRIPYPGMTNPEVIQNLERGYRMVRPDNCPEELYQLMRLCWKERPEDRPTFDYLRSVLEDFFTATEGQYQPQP

Row | SMILES | IC50 ([1]; read-out: IC50) [µM] | solubility [2] [µg/mL] | further results
1 | COc1ccc(Cl)c(C2=Cc3cnc(Nc4ccc(F)cc4)nc3N3CCC(=O)N23)c1 | 4.8 | 7 (≈ 16 µM) | –
2 | CN1C(c2c(Cl)cccc2Cl)=Cc2cnc(Nc3ccc(F)cc3)nc2N1C | 3.2 | – | –
3 | COc1ccccc1Nc1ncc2c(n1)N1CCC(=O)N1C(c1c(Cl)cccc1Cl)=C2 | 7.27 | – | –
4 | CN1CCN(c2ccc(Nc3ncc4c(n3)N3CCC(=O)N3C(c3cc(O)ccc3Cl)=C4)cc2)CC1 | 0.047 | 11 (≈ 21.8 µM) | IC50 [3]: 0.456 µM; IC50 [4]: 0.764 µM; IC50 (Jurkat): 0.0021 µM
5 | CNc1ncc2c(n1)N1CCC(=O)N1C(c1c(Cl)cccc1Cl)=C2 | 2.81 | – | –
6 | CN1C(c2ccccc2Cl)=Cc2cnc(Nc3ccc(F)cc3)nc2N1C | – | – | IC50 [1]: Not Active
7 | COc1ccc(Cl)c(C2=Cc3cnc(Nc4ccc(N(C)C)cc4)nc3N3CCC(=O)N23)c1 | 2.84 | 7 (≈ 15.1 µM) | –
8 | CCN(CC)CCOc1ccc(Nc2ncc3c(n2)N2CCC(=O)N2C(c2c(Cl)cccc2Cl)=C3)cc1 | 0.002 | 33.8 (≈ 62.7 µM) | half-life [5]: 1.5 h; IC50 [3]: 0.048 µM; bioavailability [6]: 14%; IC50 [4]: 0.003 µM; remaining at 1 h [7]: > 84%; IC50 (Jurkat): 0.00321 µM

More lines, in order of falling IC50 ([1]; read-out: IC50), values ahead:

Row | IC50 ([1]; read-out: IC50) [µM] | solubility [2] [µg/mL] | SMILES | further results
9 | 0.285 | – | CCOc1ccc(Nc2ncc3c(n2)N2CCC(=O)N2C(c2c(Cl)cccc2Cl)=C3)cc1 | –
10 | 0.182 | 2 (≈ 4.71 µM) | O=C1CCN2c3nc(Nc4ccccc4)ncc3C=C(c3c(Cl)cccc3Cl)N12 | –
11 | 0.179 | – | COc1cccc(Nc2ncc3c(n2)N2CCC(=O)N2C(c2c(Cl)cccc2Cl)=C3)c1 | –
12 | 0.143 | – | COC(=O)c1ccc(Nc2ncc3c(n2)N2CCC(=O)N2C(c2c(Cl)cccc2Cl)=C3)cc1 | –
13 | 0.124 | 2 (≈ 4.52 µM) | O=C1CCN2c3nc(Nc4ccc(F)cc4)ncc3C=C(c3c(Cl)cccc3Cl)N12 | –
14 | 0.071 | 5 (≈ 11 µM) | COc1ccc(Nc2ncc3c(n2)N2CCC(=O)N2C(c2c(Cl)cccc2Cl)=C3)cc1 | –
15 | 0.043 | 1 (≈ 2.02 µM) | CCN(CC)c1ccc(Nc2ncc3c(n2)N2CCC(=O)N2C(c2c(Cl)cccc2Cl)=C3)cc1 | –
16 | 0.026 | 5 (≈ 10.7 µM) | CN(C)c1ccc(Nc2ncc3c(n2)N2CCC(=O)N2C(c2c(Cl)cccc2Cl)=C3)cc1 | –
17 | 0.021 | 10 (≈ 20.2 µM) | CN(C)CCc1ccc(Nc2ncc3c(n2)N2CCC(=O)N2C(c2c(Cl)cccc2Cl)=C3)cc1 | –
18 | 0.01 | 1 (≈ 2.23 µM) | CN(C)c1ccc(Nc2ncc3c(n2)N2CCC(=O)N2C(c2cc(O)ccc2Cl)=C3)cc1 | IC50 [3]: 0.546 µM; IC50 [4]: 0.273 µM; IC50 (Jurkat): 0.000546 µM
19 | 0.003 | 6 (≈ 11.8 µM) | O=C1CCN2c3nc(Nc4ccc(N5CCOCC5)cc4)ncc3C=C(c3c(Cl)cccc3Cl)N12 | IC50 [3]: 0.16 µM; IC50 [4]: 0.104 µM; IC50 (Jurkat): 0.002 µM
